{"source": "patent US10264794B2", "about": "“Compositions comprising unsaturated fatty esters and uses thereof” (priority 2013, dated 2019)", "tested_on": "ASTM test fungi", "assay": "Agar plate testing", "format": "cell-based", "settings": "agar plates, 14 days at 30 C", "source_text": "ASTM test fungi in Petri dishes were subjected to Treatment solutions with and without unsaturated fatty esters (linoleic, oleic, linolenic and arachidonic esters as a 1:1:1:1 ratio). The agar plate test method allowed for rapid determinations of antifungal efficacy against wood-degrading strains of concern. The certified cultures were obtained from the American Type Culture Collection (ATCC) and propagated as per the product information sheets: • Irpex lacteus: ATCC number 11245, yeast medium Difco 0712 (ATCC medium no. 200) • Neolentius lepideus: ATCC number 12653, YM agar Difco 0712 (ATCC medium no. 200) • Postia poria: ATCC number 11538, YM agar Difco 0712 (ATCC medium no. 200) • Pleurotus ostreatus: ATCC number 32237, YM agar Difco 0712 (ATCC medium no. 200) • Trametes versicolor: ATCC number 42462, Hagem's-Modess medium (ATCC medium no. 479) • Gleoephyllum trabeum: ATCC number 11539, Potato Dextrose Agar with 0.5% yeast extract (ATCC medium no. 337)\nEach plate was then inoculated in a flame induced sterile environment with a 5 mm diameter agar plug fungal colony of those fungi listed. […] The plates were incubated for 14 days at 30 C and the presence or absence of fungal growth was noted and measured.", "data": [{"smiles": "Oc1c(Cl)c(Cl)c(Cl)c(Cl)c1Cl", "note": "[PCP, pentachlorophenol]", "values": [{"measurement": "growth of fungi", "value": "completely inhibited"}]}]}
